The text below walks through data of US8815903B2, “Indole derivative and pharmacologically acceptable salt thereof” (Kissei Pharmaceutical Co., Ltd., priority 2011, dated 2014).

The test system of experiment [1] is Sulprostone-Induced Bladder Contraction. Put plainly: Inhibitory effect of compound on sulprostone-induced bladder contraction. Particulars: female SD rats, urethane anesthesia, sulprostone 0.3 mg/kg s.c., test agent 1.0 mg/kg intravenously; for Bladder Contraction Inhibition Rate 15 minutes: 15 minutes from administration; for Bladder Contraction Inhibition Rate 60 minutes: 60 minutes from administration. The class given is in vivo, rat. An excerpt:
Inhibitory Effect of Compound on Sulprostone-Induced Bladder Contraction
Female SD rats were used. Under urethane anesthesia (1.25 g/kg, administered subcutaneously), a tracheal cannula (Size 8, HIBIKI) and a femoral vein cannula for administration (23 G needle-equipped PESO) were inserted thereinto. The bladder cannula (PESO) was inserted from the bladder apex. The bladder cannula was connected to a three-way stopcock, and then, one was connected to a pressure transducer and the other was connected to a syringe filled with saline. Saline was injected to the bladder at an injection rate of 3.6 mL/hour and the bladder contraction pressure was recorded at the time of injection with a recorder (RECTI-HORITZ-8K, NEC Corporation). After 10 minutes from stabilization of the bladder contraction pressure during urination, sulprostone was administered subcutaneously (0.3 mg/kg). Then, at the time point when the bladder contraction pressure became constant, a test agent was administered intravenously (1.0 mg/kg). An average bladder contraction pressure during the 10 minute period before administration of sulprostone was taken as a baseline (0%). Further, an average bladder contraction pressure during the 10 minute period directly before administration of the test agent was taken as a maximum bladder contraction pressure (100%). The average bladder contraction pressures were measured during 5 minutes before and after at 15 minutes and 60 minutes from administration of the test agent. The ratio of this measured value to the maximum bladder contraction pressure was calculated by the following equation and taken as an average bladder contraction rate after administration of the test agent: (Average Bladder Contraction Rate after Administration of Test Agent (%))=[(Average Bladder Contraction Pressure after Administration of Test Agent)/(Maximum Bladder Contraction Pressure)]×100 EQUATION 1
In addition, the difference between the maximum bladder contraction rate (100%) and the average bladder contraction rate (%) after administration of the test agent was calculated by the following equation and taken as a bladder contraction inhibition rate of the test agent: (Bladder Contraction Inhibition Rate)=100%−(Average Bladder Contraction Rate after Administration of Test Agent (%)) EQUATION 2

Another experiment addresses T1, rat EP1 receptor (Rattus norvegicus, UniProt P70597).
T1 construct: expressed in transfected cells
T1 sequence (P70597 1-405): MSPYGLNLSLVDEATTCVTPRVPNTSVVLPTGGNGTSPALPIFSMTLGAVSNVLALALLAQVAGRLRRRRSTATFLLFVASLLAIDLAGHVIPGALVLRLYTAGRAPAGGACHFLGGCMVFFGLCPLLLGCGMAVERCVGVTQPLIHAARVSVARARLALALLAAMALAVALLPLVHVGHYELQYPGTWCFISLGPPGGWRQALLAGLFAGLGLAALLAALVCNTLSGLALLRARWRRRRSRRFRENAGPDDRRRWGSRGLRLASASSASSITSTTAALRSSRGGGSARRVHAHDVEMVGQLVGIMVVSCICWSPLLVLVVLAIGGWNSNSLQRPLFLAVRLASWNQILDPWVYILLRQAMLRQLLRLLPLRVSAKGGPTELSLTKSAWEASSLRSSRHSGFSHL
Nature of the experiment: Test for confirmation of EP1 receptor antagonism (inhibition of PGE2-induced increase in intracellular calcium concentration). It is filed as cell-based. Particulars: rat EP1 receptor-expressing COS-1 cells; prostaglandin E2 10 nM; fluorescent calcium indicator, FDSS 7000. On the procedure:
Test for Confirmation of EP1 Receptor Antagonism
(1) Preparation of Rat EP1 Expression Vector
Using Rat Kidney BD Marathon-Ready cDNA (Nippon Becton Dickinson Company, Ltd.) as a template, a forward primer shown in (SEQ ID NO:1), and a reverse primer shown in (SEQ ID NO:2), a first run of PCR was carried out using KOD-Plus-Ver 2.0 (Toyobo Co., Ltd.). Further, using this amplification product as a template, a forward primer shown in (SEQ ID NO:3), and a reverse primer shown in (SEQ ID NO:4), a second run of PCR was carried out in the same manner. The amplification product obtained by the second run of PCR was incorporated into a vector (pcDNA3.1 D/V5-His-TOPO (registered trademark), Invitrogen Japan K. K.). By a conventional method, the vector containing this amplification product was introduced to E. coli (One Shot TOP 10 Competent Cells, Invitrogen Corporation) to transform. This transformed E. coli was cultured in an LB agar medium for one day. After the culture, colonies were selected and cultured in an LB liquid medium containing 50 μg/mL of ampicillin. After the culture, the vector was purified using a QIAprep Spin Miniprep Kit (Qiagen K. K.). The base sequence of the insertion site of this vector (SEQ ID NO:5) was compared with the rat EP1 base sequence (Ptger1) registered as Accession No. NM_013100 in publicly-known database (NCBI), and as a result, they all matched except for a single base. Further, the amino acid sequence translated by the base sequence completely matched the amino acid sequence of the rat EP1 receptor registered as an NCBI Accession No. NP_037232. Therefore, it was confirmed that the cloned gene sequence was a base sequence of the rat EP1 receptor and the obtained amino acid sequence was that of the rat EP1 receptor. The pcDNA3.1 D/V5-His-TOPO (registered trademark) to which the nucleic acid shown in (SEQ ID NO:5) had been inserted was taken as a rat EP1-expressing vector.
(2) Preparation of Rat EP1 Receptor-Expressing Cells
COS-1 cells (Dainippon Sumitomo Pharma Co., Ltd.) were cultured until they reached confluence in an incubator at 37° C. under a 5% CO2 gas condition, using a D-MEM liquid medium (high glucose and L-glutamine contained, Invitrogen Corporation) to which a penicillin-streptomycin solution (Invitrogen Corporation, final concentration: 100 U/mL as benzylpenicillin; 100 μg/mL as streptomycin) as an antibiotic, MEM nonessential amino acids (Invitrogen Corporation, final concentration: 0.1 mM), and fetal calf serum (Sanko Junyaku Co., Ltd., final concentration: 10%) were added.
The cells that had reached confluence were stripped with 0.05% trypsin/0.53 mM EDTA.4Na, and resuspended in a D-MEM liquid medium (high glucose and L-glutamine contained, Invitrogen Corporation) to which an MEM nonessential amino acid (final concentration: 0.1 mM) and fetal calf serum (final concentration: 10%) were added. In each well of a Poly D-lysine-coated 96-well microplate (BD BioCoat (registered trademark), Nippon Becton Dickinson Company, Ltd.), this resuspended cell suspension culture was prepared to be 5×10^4 cells/well in 100 μL of the liquid medium, and 100 μL of the cell suspension was seeded on each well. After seeding, the cells were cultured in an incubator at 37° C. under a 5% CO2 gas condition. At a point when the cells for introduction of a rat EP1-expressing vector were adhered (about 2 hours after seeding), introduction of the rat EP1-expressing vector was carried out in the following order.
For introduction of the rat EP1-expressing vector, Lipofectamine 2000 (Invitrogen Japan K. K.) was used. The rat EP1-expressing vector was diluted with OPTI-MEM (registered trademark) I Reduced-Serum Medium (Invitrogen Japan K. K.) to 200 ng/25 μL/well, and at the same time, Lipofectamine 2000 (Invitrogen Japan K. K.) was also diluted with OPTI-MEM (registered trademark) I Reduced-Serum Medium (Invitrogen Japan K. K.) to 0.5 μL/25 μL/well, followed by incubation at room temperature for 5 minutes. […]
In general terms: A change in cytosolic calcium serves as a functional read-out for many receptors and channels.

Take `COc1ccc2c(Cc3cccc(C(=O)NS(C)(=O)=O)n3)c(-c3ccccc3)[nH]c2c1` [Example 2-1, N-Methanesulfonyl-6-(6-methoxy-2-phenyl-1H-indol-3-ylmethyl)pyridine-2-carboxamide]: in experiment [1], the “Bladder Contraction Inhibition Rate 15 minutes” value was found to be 68.3% and the “Bladder Contraction Inhibition Rate 60 minutes” value is reported as 84.0%. The concentration for half-maximal inhibition (IC50) at rat EP1 receptor stood at 27 nM.

Take `CS(=O)(=O)NC(=O)c1cccc(Cc2c(-c3ccccc3)[nH]c3cc(C4CC4)ccc23)n1` [Example 2-2, 6-(6-Cyclopropyl-2-phenyl-1H-indol-3-ylmethyl)-N-methanesulfonylpyridine-2-carboxamide]: in experiment [1], the “Bladder Contraction Inhibition Rate 15 minutes” value turned out to be 90.0% and the “Bladder Contraction Inhibition Rate 60 minutes” value amounted to 70.4%. Besides, the IC50 at rat EP1 receptor turned out to be 29 nM.

`Cc1ccc2c(Cc3cccc(C(=O)NS(C)(=O)=O)n3)c(-c3ccccc3)[nH]c2c1` [Example 3-1, N-Methanesulfonyl-6-(6-methyl-2-phenyl-1H-indol-3-ylmethyl)pyridine-2-carboxamide]: in experiment [1], the “Bladder Contraction Inhibition Rate 15 minutes” value is listed as 77.3% and the “Bladder Contraction Inhibition Rate 60 minutes” value stood at 78.2%. Further, the IC50 at rat EP1 receptor was determined as 33 nM.

Take `CCS(=O)(=O)NC(=O)c1cccc(Cc2c(-c3ccccc3)[nH]c3cc(OC)ccc23)n1` [Example 3-6]: in experiment [1], the “Bladder Contraction Inhibition Rate 15 minutes” value came to 67.5% and the “Bladder Contraction Inhibition Rate 60 minutes” value was 63.6%. At rat EP1 receptor, the IC50 worked out at 18 nM.

Take `COc1cc2[nH]c(-c3ccccc3)c(Cc3cccc(C(=O)NS(C)(=O)=O)n3)c2cc1F` [Example 3-9, 6-(5-fluoro-6-methoxy-2-phenyl-1H-indol-3-ylmethyl)-N-methanesulfonylpyridine-2-carboxamide]: in experiment [1], the “Bladder Contraction Inhibition Rate 15 minutes” value turned out to be 76.4% and the “Bladder Contraction Inhibition Rate 60 minutes” value turned out to be 78.9%. The IC50 at rat EP1 receptor came to 25 nM.

As for `Cc1ccc2c(Cc3cccc(-c4nnn[nH]4)n3)c(-c3ccoc3)[nH]c2c1` [Example 17-8], the IC50 at rat EP1 receptor worked out at 7.3 nM.

Consider `c1cc(Cc2c(-c3ccoc3)[nH]c3cc(C4CC4)ccc23)nc(-c2nnn[nH]2)c1` [Example 17-9], for which the IC50 at rat EP1 receptor amounted to 10 nM.

With `CCC(C)c1[nH]c2cc(OC)ccc2c1Cc1cccc(-c2nnn[nH]2)n1` (centres unmarked) [Example 17-10], the IC50 on rat EP1 receptor is 22 nM.

Turning to `CC1(c2[nH]c3cc(C4CC4)ccc3c2Cc2cccc(-c3nnn[nH]3)n2)CC1` [Example 17-13, 6-cyclopropyl-2-(1-methylcyclopropyl)-3-[6-(1H-tetrazol-5-yl)pyridin-2-ylmethyl]-1H-indole], the IC50 at rat EP1 receptor came to 28 nM.

With `CC1(c2[nH]c3cc(Cl)ccc3c2Cc2cccc(-c3nnn[nH]3)n2)CC1` [Example 17-14, 6-chloro-2-(1-methylcyclopropyl)-3-[6-(1H-tetrazol-5-yl)pyridin-2-ylmethyl]-1H-indole], the half-inhibitory concentration (IC50) on rat EP1 receptor was 24 nM.

Turning to `COc1cc2[nH]c(-c3ccccc3)c(Cc3cccc(C(=O)NS(=O)(=O)C(C)C)n3)c2cc1F` [Example 18-3], at rat EP1 receptor, the IC50 was determined as 41 nM.

As for `COc1cc2[nH]c(-c3ccccc3)c(Cc3cccc(C(=O)NS(=O)(=O)C4CC4)n3)c2cc1F` [Example 18-4], the IC50 at rat EP1 receptor was 35 nM.

Regarding `CCCS(=O)(=O)NC(=O)c1cccc(Cc2c(-c3ccccc3)[nH]c3cc(OC)c(F)cc23)n1` [Example 18-5], the IC50 at rat EP1 receptor is 32 nM.

Turning to `CCS(=O)(=O)NC(=O)c1cccc(Cc2c(-c3ccsc3)[nH]c3cc(C)ccc23)n1` [Example 18-9], the IC50 on rat EP1 receptor turned out to be 23 nM.

As to `Cc1ccc2c(Cc3cccc(C(=O)NS(=O)(=O)C(C)C)n3)c(-c3ccsc3)[nH]c2c1` [Example 18-10], the IC50 on rat EP1 receptor is 26 nM.

Consider `COc1cc2[nH]c(-c3ccccc3)c(Cc3cccc(C(=O)NS(=O)(=O)c4ccccc4)n3)c2cc1F` [Example 18-11], for which the IC50 at rat EP1 receptor is 27 nM.

As for `COc1ccc2c(Cc3cccc(C(=O)NS(=O)(=O)c4ccccc4F)n3)c(C(C)(C)C)[nH]c2c1` [Example 18-13], the IC50 at rat EP1 receptor worked out at 40 nM.

As for `COc1ccc2c(Cc3cccc(/C=C/c4nnn[nH]4)n3)c(-c3ccccc3)[nH]c2c1` [Example 19, 6-Methoxy-2-phenyl-3-{6-[(E)-2-(1H-tetrazol-5-yl)vinyl]pyridine-2-ylmethyl}-1H-indole], at rat EP1 receptor, the IC50 was 34 nM.

Consider `COc1cc2c(Cc3cccc(-c4nnn[nH]4)n3)c(C3(C)CC3)[nH]c2cc1Cl` [Example 20-1, 6-chloro-5-methoxy-2-(1-methylcyclopropyl)-3-[6-(1H-tetrazol-5-yl)pyridin-2-ylmethyl]-1H-indole], for which, at rat EP1 receptor, the IC50 is 27 nM.

As to `CCc1ccc2c(Cc3cccc(-c4nnn[nH]4)n3)c(C3(C)CC3)[nH]c2c1` [Example 20-2, 6-ethyl-2-(1-methylcyclopropyl)-3-[6-(1H-tetrazol-5-yl)pyridin-2-ylmethyl]-1H-indole], the IC50 at rat EP1 receptor is 15 nM.

As for `COc1cc2[nH]c(C3(C)CC3)c(Cc3cccc(-c4nnn[nH]4)n3)c2cc1C` [Example 20-4, 6-methoxy-5-methyl-2-(1-methylcyclopropyl)-3-[6-(1H-tetrazol-5-yl)pyridin-2-ylmethyl]-1H-indole], the 50% inhibitory concentration (IC50) on rat EP1 receptor was found to be 14 nM.

As for `COc1ccc2c(Cc3cccc(-c4nnn[nH]4)n3)c(-c3cncnc3)[nH]c2c1` [Example 23, 6-Methoxy-2-pyrimidin-5-yl-3-[6-(1H-tetrazol-5-yl)pyridin-2-ylmethyl]-1H-indole], the IC50 at rat EP1 receptor was found to be 11 nM.

Broadly, the IC50 is the concentration that gives 50% inhibition.
